According to patent publication US20250222011A1, “DRUG TARGET FOR INHIBITING TUMOR, USE, AND ORAL DRUG” (CHI BIOTECH CO., LTD., priority 2024, published 2025):

Columns and labels:
nascent peptides = experiment: Detection of nascent peptides (puromycin labelling, Western blotting); assay type: cell-based; conditions: 1 mg/mL, FIG. 6
Protocol: Detection of nascent peptides: the cells were plated in a 6-well plate, with 200,000 cells in each well. After 24 h of adhesion, ATCA was added to make a working solution at a concentration of 1 mg/mL, while the control group was replaced with new medium. The experimental and control groups were treated for 2 h, 6 h, 12 h, 24 h, and 48 h separately, […], and cycloheximide was added to the positive control group for 10 min of treatment 25 min before sample collection. 10 μg/μL puromycin-labeled nascent peptide was added to all wells for 15 min, the medium was aspirated, the cells were washed twice with PBS, added with IP & WB lysis buffer to allow lysis on ice for 30 min, and centrifuged at 12,000 g for 20 min at 4° C. A resulting supernatant was transferred to a new centrifuge tube, 10 μg of protein was added to 5×SDS Loading Buffer, denatured in a 100° C. water bath for 10 min, and quantitatively detected by Western blotting. Western Blotting: the sample and molecular standard of pre-stained protein were loaded onto an SDS-PAGE gel (10 cm×10 cm) to allow electrophoresis at 100 V for 40 min. The proteins in SDS-PAGE were transferred to nitrocellulose membrane at 100 V, 230 mA within 1 h. After transfer, the nitrocellulose membrane was washed with 25 mL of TBS for 5 min at room temperature. […]

EEF2 = target: T1, EEF2 (Homo sapiens, UniProt P13639); experiment: CESTA-WB (cellular thermal shift assay-Western blotting), H1299 cell lysate; assay type: binding; conditions: ATCA 10 nM to 10 mM, 55° C. for 3 min, FIG. 1
T1 construct: a cell lysate was collected and centrifuged at 17,000 g; endogenous in cells; host or cells: H1299
Protocol: CESTA-WB experiment: H1299 cells were plated and cultured in a 15 cm dish, and when a cell density reached about 90% to 100%, the medium was aspirated; the cells were washed twice with PBS, and 2 mL of Lysis Buffer (RB Buffer, 10% N-Dodecyl-β-D-maltoside, and 1× protease inhibitor) was added to each dish and placed flatly on ice to allow lysis for 30 min, and a cell lysate was collected and centrifuged at 17,000 g, 4° C. for 10 min; a resulting supernatant was quantified using a BCA kit. 45 μL of a whole protein was added in a PCR tube, ATCA was added to final concentrations of 10 mM, 1 mM, 100 μM, 10 μM, 1 μM, 100 nM, and 10 nM, respectively, and allowed to stand at 25° C. for 30 min to allow the ATCA to fully interact with the whole protein; while another two tubes without ATCA were taken as controls. The experimental group was treated at 55° C. for 3 min, while one tube in the control group was treated at 37° C. for 3 min, and the other tube was treated at 50° C. for 3 min; centrifugation was conducted at 17,000×g for 10 min at 4° C. to remove denatured proteins. The supernatant was transferred into a new PCR tube, and 5 μg of the supernatant was added into 5×SDS Loading Buffer to allow denaturation in a 100° C. water bath; the Western Blotting was conducted to quantify EEF2, EIF2S1, B-actin, and Vinculin proteins.
Western Blotting experiment: the sample and molecular weight standard of pre-stained protein were loaded onto an SDS-PAGE gel (10 cmx 10 cm) to allow electrophoresis at 100 V for 40 min. The proteins in SDS-PAGE were transferred to nitrocellulose membrane at 100 V, 230 mA within 1 h. After transfer, the nitrocellulose membrane was washed with 25 mL of TBS for 5 min at room temperature. The nitrocellulose membrane was placed in 25 mL of blocking buffer (TBST, 5% skim milk) and incubated at room temperature for 1 h. The membrane was washed three times with 15 mL TBST, 5 min each. […]

## O=C(O)C1=CC(=C(c2ccc(O)c(C(=O)O)c2)c2ccc(O)c(C(=O)O)c2)C=CC1=O [ATCA, aurintricarboxylic acid]
Nascent peptides; 2 h to 12 h after adding the drug
  protein synthesis (nascent peptides): had not been significantly blocked
Nascent peptides; 24 h to 48 h after adding the drug
  number of new peptide chains compared with that without the drug: significantly reduced
EEF2
  binding to non-target protein EEF2: did not bind
